The source of these data is paper PMC3016413, “An Antiretroviral/Zinc Combination Gel Provides 24 Hours of Complete Protection against Vaginal SHIV Infection in Macaques” (PLoS ONE, 2011).

Where two headings read alike, the source gives them in different places.

One series relates to HIV-1 wild type. Also on record: method as in Fernández-Romero unpublished. The following applies: ref Fernández-Romero unpublished; read-out: IC50 against wild type; cited from earlier work.
In series [1] the test system is HIV-1 L100I/K103N double mutant. Details: method as in Fernández-Romero unpublished. The settings on record: ref Fernández-Romero unpublished; read-out: IC50 against L100I/K103N double mutant; cited from earlier work.
Series [2] in a line: Vaginal pH and cytokines/chemokines in vaginal fluids after repeated gel. The format is in vivo, Rhesus macaques (Macaca mulatta). On the procedure: PBMCs were isolated from EDTA blood using Ficoll-Hypaque density gradient centrifugation (Amersham Pharmacia Biotech, Uppsala, Sweden) as already described. RPMI 1640 (Invitrogen/GIBCO, Carlsbad, CA, USA) culture medium containing 2 mM L-glutamine (Invitrogen/GIBCO) 10 mM HEPES (N-2-hydroxyethylpiperazine-N'-2-ethanesulfonic acid) (Invitrogen/GIBCO), 50 µM 2-mercaptoethanol (Sigma) penicillin (100 U/ml) and streptomycin (100 µg/ml) (Invitrogen/GIBCO) and 1% heparinized human plasma (Innovative Research, Southfield, MI) was used for final re-suspension of PBMCs. Medium with 10% HI-FBS (heat inactivated fetal bovine serum) (Invitrogen/GIBCO) instead of 1% human plasma was used for the PBMC-174xCEM co-cultures. DNA was isolated from lymph nodes as described with the DNeasy® Blood & Tissue Kit (Qiagen Sciences, MD USA). […] Vaginal pH was determined by inserting pH-indicator strip (EMO Chemical Inc., Gibbstown, NJ) into the vaginal vault for 5 minutes to saturate the pH paper with vaginal fluid.
SIV-specific IFN-γ T cell responses were monitored by ELISPOT using AT-2 SIV (versus the no virus microvesicle controls) as the stimuli and SIV-specific antibodies by ELISA [36]. […] Cell-free vaginal fluids were analyzed for chemokine and cytokine expression using the monkey-reactive Beadlyte human 14-plex Detection System according to the manufacturer's instructions (Invitrogen). […]

Series [3] relates to R5 and X4 viruses. Details: method as in PMID 16924181, PMID 18776937, PMID 7545297. The following applies: read-out: antiviral IC50; cited from earlier work.
Series [4] has as its system R5 and X4 viruses. Also on record: method as in PMID 16924181, PMID 18776937, PMID 7545297. The following applies: potentially virucidal; cited from earlier work.
The test system of a further series is HIV-1 Y181C mutant. Details: method as in Fernández-Romero unpublished. The following applies: ref Fernández-Romero unpublished; read-out: IC50 against Y181C mutant; cited from earlier work.
In the next series the test system is HIV-1. The following applies: in vitro; ref Fernández-Romero unpublished; cited from earlier work.
For series [5] the following is noted: rat, in vivo; cited from earlier work.
On the set-up of series [6]: method as in PMID 18086845. The settings on record: 8 h after daily treatment for 7 days with 273 µM TMC120; cited from earlier work.

Consider `O=C1Nc2ccc(Cl)cc2[C@@](C#CC2CC2)(C(F)(F)F)O1` [Efavirenz, reference compound], for which the results for the IC50 (in the series with HIV-1 wild type; in series [1]) were 0.6 nM and more than 10000 nM, respectively.

For the molecule `CCC(=O)c1ccc(F)c([C@@H]2C[C@@H]2NC(=O)Nc2ccc(C#N)cn2)c1O` [MIV-150], the “impact on vaginal pH” value in [2] (before, during and 8 or 24 h after 2 week gel administration) is on record as “no impact”. Moreover, the “impact on CXCL8 and CCL2 levels in vaginal fluids” value in series [2] (relative to carrageenan, 2 week daily gel administration) is listed as “no further impact”. Moreover, the IC50 with R5 and X4 viruses [3] is less than 1 nM; with R5 and X4 viruses [4], 400 nM; in the series on HIV-1 wild type it was 0.7 nM; in series [1], 900 nM; in the series with HIV-1 Y181C mutant, 0.2 nM. In the series on HIV-1, the “memory effect: time exposed cells remain resistant to infection” value is reported as “up to 5 d”. Further, in [5], the “time to becoming undetectable in plasma (short plasma half-life)” value is not above 24 h.

Regarding `Cc1cc(C)c(Nc2ccnc(Nc3ccc(C#N)cc3)n2)c(C)c1` [TMC120], in series [6], the “level of TMC120 associated with the cervical tissues” value is 3 to 80 pg/mg.
